Reference: patent US20040229873A1, “Treatment of neurodegenerative conditions” (BTG International Limited, priority 2003, published 2004)

Legend:
[1] = test system: patients suffering from MS; assay: Case studies of MS patients treated with Lamotrigine, compared with matching patients; type: in vivo, human
Text: The average maintenance dose of Lamotrigine in these conditions is 400 mgs per day, but the initial dose or the rate of escalation may cause several side effects.
In the present study, the inventors followed the clinician inventor's clinical practice, which adopted two strategies that had varied from the manufacturer's recommendations. Firstly, a very slow titration process starting with 25 mgs per day increasing the dose gradually (often over several weeks) to avoid adverse events. Secondly, a maintenance dose with mean of 600 mgs per day was applied. Using these two strategies, the inventors observed improvement in the clinical activity of MS and also stabilisation of the disease process. The beneficial effects are illustrated in the following two case studies compared with matching patients who had not been treated with Lamotrigine.
The first treated patient was a person. […] They were referred to the clinician inventor in 1998, and their clinically active disease at that time represented a valid indication for treatment with diseases modifying therapy (β-interferon or Copaxone). However, the therapy could not be started because of financial constraints that were then imposed by their Health Authority. They also complained of sharp pain affecting the legs, which was resistant to several types of analgesia and also resistant to tricyclic antidepressants. Accordingly, treatment was started with Lamotrigine to treat their pain.
The initial dose was 25 mgs per day, which was escalated gradually as outlined above. Their Expanded Disability Status Scale at that time was 2.5. Their painful symptoms improved following Lamotrigine therapy. They also noticed improvement in their other MS-related symptoms, such as muscle spasticity in the legs and daytime fatigue. […] Their EDSS score remained stable at 2.5. Such improvement seemed to be related to Lamotrigine therapy because they had received no immunosuppressive or steroid therapy during the past four years.
A second of Lamotrigine-treated patient was a person, who was diagnosed with relapsing remitting MS five years ago. They also had idiopathic generalised epilepsy since childhood, which was treated with sodium valproate. In the first two years following the diagnosis of MS, they had three clinical relapses. Their seizures also deteriorated and because of this, their anti-epileptic therapy was changed from sodium valproate to Lamotrigine. This drug was introduced at a low dose, and was escalated cautiously as outlined above. Their EDSS score at the beginning of treatment with Lamotrigine was 1.5. […] This improvement seemed to be related to Lamotrigine therapy since they had received no treatment with steroids or immunosuppressive drugs.

[2] = test system: multiple sclerosis patients; settings: cited from earlier work; for treatment of symptoms of MS / clinical positive and negative symptoms of MS: Sakurai and Kanazawa 1999; for clinical positive and negative symptoms of MS: low doses, lidocaine by iv infusion
[3] = seven MS patients, slow titration from 25 mgs per day, maintenance dose with mean of 600 mgs per day

For `Nc1nnc(-c2cccc(Cl)c2Cl)c(N)n1` [Lamotrigine, 3,5-diamino-6-(2,3-dichlorophenyl)-1,2,4-triazine], the “other MS-related symptoms, such as muscle spasticity in the legs and daytime fatigue” value ([1]; Example 1a, person) was “improvement”, the clinical relapses ([1]; Example 1a, person, relapsing remitting MS, average of one severe relapse per year before, Lamotrigine from 25 mgs per day escalated gradually) was “no clinical relapses since 1998” and the painful symptoms ([1]; Example 1a, person, sharp pain affecting the legs) was “improved”. The EDSS score ([1]; Example 1a, person, remained stable under Lamotrigine (2.5 at start)) was 2.5, the clinical relapses ([1]; Example 2a, person, relapsing remitting MS, three relapses in first two years before Lamotrigine) was “no clinical relapses” and the EDSS score ([1]; Example 2a, person, remained stable under Lamotrigine (1.5 at start)) was 1.5. For the same molecule, the MS activity ([1]; Examples 3-7, five other patients treated with Lamotrigine) was “clinical improvement”, the “clinical activity of MS” value [1, 3] was “improvement” and the disease process [1, 3] was “stabilisation”.

In the case of `CN(C)CCC=C1c2ccccc2CCc2ccccc21` [Amitriptyline], the clinical relapses ([1]; Example 1b control, person, active relapsing remitting MS) is reported as “continued to have clinical relapses on a yearly basis” and the painful symptoms ([1]; Example 1b control, person, active relapsing remitting MS, intractable pain) is reported as “improved”.

For `O=C1NC(=O)C(c2ccccc2)(c2ccccc2)N1` [phenytoin], the “treatment of symptoms of MS” value [2] is given as “without appropriate success”.

In the case of `CCN(CC)CC(=O)Nc1c(C)cccc1C` [lidocaine], the “clinical positive and negative symptoms of MS” value [2] is given as “generally improve clinical positive symptoms rather than worsening negative symptoms”.

In the case of `NC(=O)N1c2ccccc2C=Cc2ccccc21` [carbamazepine], the “treatment of symptoms of MS” value [2] is listed as “without appropriate success” and the “disability in multiple sclerosis patients” value ([2]; even at relatively low doses, Ramsaransing et al (2000)) is listed as “seriously enhance disability”.

For `Cc1cccc(C)c1OCC(C)N` (stereo not shown) [mexiletine], the “clinical positive and negative symptoms of MS” value [2] is given as “generally improve clinical positive symptoms rather than worsening negative symptoms”.
